This is an account of results in patent US11617758B2, “Emulsion formulations” (Marius Pharmaceuticals LLC, priority 2013, dated 2023).

Each structure is given as a SMILES string. In brackets after ≈: the same amount, converted by molar mass. Like-named read-outs stand apart in the source and are kept apart here.

Series [1] can be described thus: TU solubility in various solubilizers. To be noted: testosterone undecanoate dissolved in the named vehicle.
For series [2] the following is noted: cited from earlier work.
The conditions of series [3]: cited from earlier work. This is another data set of the same source.
For series [4] the following is noted: 200 mg oral twice daily, cited from earlier work.
The subject of series [5] is plasma lipids. To be noted: interesterified with margarine, mild hypercholesteremia; cited from earlier work.
Series [6] deals with absorption of cholesterol. The settings on record: 1 g ingested, meal containing 500 mg of cholesterol; cited from earlier work.

`Cc1c(C)c2c(c(C)c1O)CCC(C)(CCCC(C)CCCC(C)CCCC(C)C)O2` (racemic) [dl-alpha-tocopherol]: the “TU Solubility (mg/g) at 37 C.” value in series [1] amounted to 527 mg/g.
`CC(C)CCC[C@@H](C)[C@H]1CC[C@H]2[C@@H]3CC=C4C[C@@H](O)CC[C@]4(C)[C@H]3CC[C@]12C` [Cholesterol]: in series [2], the water solubility was roughly 0.01 µg/mL (≈ 0.0259 µM).
For `CCCCCCCC/C=C\CCCCCCCC(=O)OCC` [Crodamol EO (ethyl oleate), ethyl oleate], the “TU Solubility (mg/g) at 37 C.” value in series [1] is given as 221 mg/g.
Still for that read-out and setting: the result for `CCCCCCCCCCCCCC(=O)OC(C)C` [Crodamol IPM (isopropyl myristate), isopropyl myristate] reads 295 mg/g; that for `CCCCCCCCCCCCCCCC(=O)OC(C)C` [Crodamol IPP (isopropyl palmitate), isopropyl palmitate], 215 mg/g.
Same read-out and setting: the result for `CCCCC/C=C\C/C=C\CCCCCCCC(=O)OCC` [Ethyl linoleate] reads 230 mg/g; that for `CCCCCCCC/C=C\CCCCCCCC(=O)OCC(COC(=O)CCCCCCC/C=C\CCCCCCCC)OC(=O)CCCCCCC/C=C\CCCCCCCC` [Glyceryl trioleate (Capmul GTO), Glyceryl trioleate], 154 mg/g.
As to `CCCCC/C=C\C/C=C\CCCCCCCC(=O)O` [Linoleic acid], the “TU Solubility (mg/g) at 37 C.” value in series [1] was determined as 391 mg/g.
Same read-out and setting: the result for `CC/C=C\C/C=C\C/C=C\CCCCCCCC(=O)O` [Linolenic acid] reads 162 mg/g; that for `CN1CCCC1=O` [N-methyl pyrolidone], greater than 500 mg/g; that for `CCCCCCCC/C=C\CCCCCCCC(=O)O` [Oleic acid], 405 mg/g.
Consider `CCCCCC[C@@H](O)C/C=C\CCCCCCCC(=O)O` [Ricinoleic acid], for which the “TU Solubility (mg/g) at 37 C.” value in series [1] amounted to 244 mg/g.
Take `CCCCCCCCCCC(=O)O[C@H]1CC[C@H]2[C@@H]3CCC4=CC(=O)CC[C@]4(C)[C@H]3CC[C@]12C` [TU, testosterone undecanoate]: the oral bioavailability entry in series [3] (dosed with normal fat meal (30% calories from fat), solution of TU in oleic acid) was “about 7%”. Moreover, the “fraction absorbed via the intestinal lymphatic system” value in series [3] (in vivo) was “More than 80%”.
Consider `CCOCCOCCO` [Transcutol HP, diethylene glycol monoethyl ether], for which the “TU Solubility (mg/g) at 37 C.” value in series [1] turned out to be 180 mg/g.
Regarding `C[C@]12CC[C@H]3[C@@H](CCC4=CC(=O)CC[C@@]43C)[C@@H]1CC[C@@H]2O` [micronized testosterone, testosterone], in series [4] (two doses), the “time of total serum testosterone within the normal range” value is “greater than 12 hours”. Also, the “time at desired level of serum testosterone for each peak” value in series [4] is “about 4 hours”.
As to `CC[C@H](CC[C@@H](C)[C@H]1CC[C@H]2[C@@H]3CC[C@H]4C[C@@H](O)CC[C@]4(C)[C@H]3CC[C@]12C)C(C)C` [sitostanol], in series [5], the “mean 1-year reduction in plasma cholesterol” value is listed as 10.2%.
Consider `C[C@]12CC[C@H]3[C@@H](CCC4=CC(=O)CC[C@@]43C)[C@@H]1CC[C@@H]2O` [testosterone], for which the oral bioavailability in series [3] (dosed as a suspension in oil) is given as 1%. Moreover, in series [3] (in vivo), the “circulating fraction bound to sex hormone binding globulin and albumin” value is recorded as greater than 98%; the plasma half-life was 10 to 30 min.
Regarding `CC[C@H](CC[C@@H](C)[C@H]1CC[C@H]2[C@@H]3CC=C4C[C@@H](O)CC[C@]4(C)[C@H]3CC[C@]12C)C(C)C` [ß-sitosterol], the “reduction of absorption of cholesterol” value in series [6] is 42%.
